{"source": "patent US5405831A", "about": "“Treatment of bone disorders” (Amylin Pharmaceuticals, Inc., priority 1989, dated 1995)", "key": {"[1]": {"tested_on": "rat osteoclasts", "assay": "bone resorption assay (disaggregated rat osteoclasts on human cortical bone slices)", "conditions": "osteoclasts counted on hormone-treated versus control bone slices", "procedure": "Following incubation (37° C.; 15 minutes), the bone slices were removed, washed gently in Minimal Essential Medium with FCS (10%, v/v) (MEM/FCS) and placed in separate wells (each well contained 5-6 slices and 900 μl MEM/FCS). Either one or two homogeneous suspensions of osteoclasts were used for each experiment. When two suspensions were used, the experiment was divided into two blocks, each of which included all treatments and one suspension. After further incubation (37° C., 10% humidified CO2, 10 minutes), 100 μl of MEM/FCS containing the test substance was added. Finally, bone slices were incubated overnight (37° C., 10% humidified CO2, 18 hours) and quantified in terms of cell numbers and bone resorption. After fixation in glutaraldehyde, cells were stained with toluidine blue and examined by transmitted light microscopy. In order to rule out toxic effects, osteoclasts were counted on three slices for every variable and their numbers were then compared on hormone-treated and control bone slices. […] Osteoclastic excavations, each defined by a continuous border within an area of unresorbed bone were counted. The area of bone surface resorbed was calculated by tracing the outline of the concavities into an image processor (Sight Systems, Newbury, Berks)."}, "[2]": {"tested_on": "rat osteoclasts", "conditions": "Zaidi et al. 1988; cited from earlier work"}, "[3]": {"tested_on": "rabbit", "conditions": "cited from earlier work"}, "[4]": {"tested_on": "chick", "conditions": "higher doses; cited from earlier work"}, "[5]": {"tested_on": "isolated osteoclasts", "assay": "functional responses of isolated osteoclasts (motility, cytosolic calcium, retraction)", "type": "cell-based", "source_text": "Thus, it appears that osteoclast activity may be restrained via two receptor types; calcitonin acts at both while amylin acts mainly via only one, reducing motility, reducing resorption and probably acting via the second messenger cAMP (Zaidi et. al. 1990, J. Endocrinol 126, 473-481."}}, "note": "Like-named read-outs stand apart in the source and are kept apart here.", "data": [{"compound": "CC[C@H](C)[C@H](NC(=O)[C@H](C)NC(=O)CNC(=O)[C@H](Cc1ccccc1)NC(=O)[C@H](CC(N)=O)NC(=O)[C@H](CC(N)=O)NC(=O)[C@H](CO)NC(=O)[C@H](CO)NC(=O)[C@H](Cc1c[nH]cn1)NC(=O)[C@@H](NC(=O)[C@H](CC(C)C)NC(=O)[C@H](Cc1ccccc1)NC(=O)[C@H](CC(N)=O)NC(=O)[C@H](C)NC(=O)[C@H](CC(C)C)NC(=O)[C@H](CCCNC(=N)N)NC(=O)[C@H](CCC(N)=O)NC(=O)[C@@H](NC(=O)[C@H](C)NC(=O)[C@@H]1CSSC[C@H](NC(=O)[C@@H](N)CCCCN)C(=O)N[C@@H](CC(N)=O)C(=O)N[C@@H]([C@@H](C)O)C(=O)N[C@@H](C)C(=O)N[C@@H]([C@@H](C)O)C(=O)N1)[C@@H](C)O)C(C)C)C(=O)N[C@@H](CC(C)C)C(=O)N[C@@H](CO)C(=O)N[C@@H](CO)C(=O)N[C@H](C(=O)N[C@@H](CC(N)=O)C(=O)N[C@H](C(=O)NCC(=O)N[C@@H](CO)C(=O)N[C@@H](CC(N)=O)C(=O)N[C@H](C(=O)N[C@@H](Cc1ccc(O)cc1)C(N)=O)[C@@H](C)O)C(C)C)[C@@H](C)O", "note": "[amylin]", "values": [{"measurement": "osteoclast cell number or viability", "setting": "[1]", "result": "without affecting cell number of viability"}]}, {"compound": "CGRP", "values": [{"measurement": "osteoclastic bone resorption", "setting": "[2]", "result": "inhibits osteoclastic bone resorption"}, {"measurement": "effect on plasma calcium", "setting": "[3]; rabbit, higher doses", "result": "parathyroid hormone-like hypercalcemic effect"}, {"measurement": "effect on plasma calcium", "setting": "[3]; rabbits, lower doses", "result": "hypocalcaemic"}, {"measurement": "effect on plasma calcium", "setting": "[4]", "result": "parathyroid hormone-like hypercalcemic effect"}]}, {"compound": "calcitonin", "values": [{"measurement": "cell retraction", "setting": "[5]", "result": "caused cell retraction"}, {"measurement": "cytosolic calcium", "setting": "[5]", "result": "elevated cytosolic calcium"}, {"measurement": "osteoclast motility", "setting": "[5]", "result": "inhibited osteoclast motility"}]}]}
